Laboratory results taken from patent US8778923B2, “GLP-1 receptor modulators” (Receptos, Inc., priority 2011, dated 2014).

Target: T1, GLP-1R (Homo sapiens, UniProt P43220)
T1 construct: host or cells: CRE-bla CHO-K1
Test: EC20 GLP-1(9-36) PAM cAMP assay: dose response of compound in the presence of fixed concentration of GLP-1(9-36)
Format: cell-based
Conditions: GLP-1R CRE-bla CHO-K1 cells, compound dose response in presence of fixed concentration of GLP-1(9-36)
Method in brief: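 GLP-1R CRE-bla CHO-K1 cells in HBSS/10 mM Hepes/0.1% BSA pH 7.4 with IBMX got a 12-point compound dose response plus fixed EC20 GLP-1(9-36), 30 min at 37 °C. cAMP measured by HitHunter luminescence against a standard curve; EC50 and Emax by non-linear regression.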

T1 sequence (P43220 24-463): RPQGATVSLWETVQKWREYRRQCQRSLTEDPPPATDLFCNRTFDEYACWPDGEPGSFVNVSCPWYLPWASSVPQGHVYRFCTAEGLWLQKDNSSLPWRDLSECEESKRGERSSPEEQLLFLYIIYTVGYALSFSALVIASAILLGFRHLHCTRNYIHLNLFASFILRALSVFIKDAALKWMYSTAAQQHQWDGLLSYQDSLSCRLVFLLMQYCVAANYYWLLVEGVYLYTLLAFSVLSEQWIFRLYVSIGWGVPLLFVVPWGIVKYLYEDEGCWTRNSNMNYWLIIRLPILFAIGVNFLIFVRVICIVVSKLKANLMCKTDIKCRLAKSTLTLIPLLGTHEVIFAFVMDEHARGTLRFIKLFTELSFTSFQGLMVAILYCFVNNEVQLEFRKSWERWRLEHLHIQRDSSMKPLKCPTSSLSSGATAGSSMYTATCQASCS
T1 sequence (P01275 100-127 partner limits assumed): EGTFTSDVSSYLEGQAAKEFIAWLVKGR

SMILES	EC50 [nM]
CC(C)(C)c1ccc(-c2cnc(-c3ccc(C[C@H](NC(=O)c4ccc(S(C)(=O)=O)cc4)C(=O)O)cc3)nc2)cc1 [Compound 159]	800 to 2500
CCc1ccc(C(=O)N[C@@H](Cc2ccc(-c3ncc(-c4ccc(C(C)(C)C)cc4)cn3)cc2)C(=O)O)cc1 [Compound 160]	800 to 2500
CC(C)c1ccc(C(=O)N[C@@H](Cc2ccc(-c3ncc(-c4ccc(C(C)(C)C)cc4)cn3)cc2)C(=O)O)cc1 [Compound 161]	800 to 2500
CC(C)Oc1ccc(C(=O)N[C@@H](Cc2ccc(-c3ncc(-c4ccc(C(C)(C)C)cc4)cn3)cc2)C(=O)O)cc1 [Compound 162]	800 to 2500
CC(C)Cc1ccc(C(=O)N[C@@H](Cc2ccc(-c3ncc(-c4ccc(C(C)(C)C)cc4)cn3)cc2)C(=O)O)cc1 [Compound 163]	800 to 2500
CC(C)(C)c1ccc(-c2cnc(-c3ccc(C[C@H](NC(=O)c4ccc(C(C)(C)C)s4)C(=O)O)cc3)nc2)cc1 [Compound 165]	800 to 2500
CC(C)n1cc(C(=O)N[C@@H](Cc2ccc(-c3ncc(-c4ccc(C(C)(C)C)cc4)cn3)cc2)C(=O)O)cn1 [Compound 167]	800 to 2500
CC(C)(C)c1ccc(-c2cnc(-c3ccc(C[C@H](NC(=O)c4cc(C(C)(C)C)n[nH]4)C(=O)O)cc3)nc2)cc1 [Compound 168]	800 to 2500
CC(C)(C)c1ccc(-c2cnc(-c3ccc(C[C@H](NC(=O)c4nnc(C(C)(C)C)s4)C(=O)O)cc3)nc2)cc1 [Compound 169]	5000 to 10000
CC(C)(C)Cc1ccc(C(=O)N[C@@H](Cc2ccc(-c3ncc(-c4ccc(C(C)(C)C)cc4)cn3)cc2)C(=O)O)cc1 [Compound 172]	800 to 2500
CC(C)(C)c1ccc(-c2cnc(-c3ccc(C[C@H](NC(=O)c4ccc(OC(F)(F)F)cc4)C(=O)O)cc3)nc2)cc1 [Compound 173]	800 to 2500
CC(C)(C)c1ccc(-c2cnc(-c3ccc(C[C@H](NC(=O)c4ccc(C(F)(F)F)cc4)C(=O)O)cc3)nc2)cc1 [Compound 174]	< 800
CC(C)(C)c1ccc(-c2cnc(-c3ccc(C[C@H](NC(=O)c4ccc(O)cc4)C(=O)O)cc3)nc2)cc1 [Compound 175]	< 800
CC(=O)c1ccc(C(=O)N[C@@H](Cc2ccc(-c3ncc(-c4ccc(C(C)(C)C)cc4)cn3)cc2)C(=O)O)cc1 [Compound 176]	5000 to 10000
CC(C)(C)c1ccc(-c2cnc(-c3ccc(C[C@H](NC(=O)c4ncc(C(C)(C)C)s4)C(=O)O)cc3)nc2)cc1 [Compound 177]	800 to 2500
CC(C)(C)c1ccc(-c2cnc(-c3ccc(C[C@H](NC(=O)c4cnn(C(C)(C)C)c4)C(=O)O)cc3)nc2)cc1 [Compound 178]	800 to 2500
CC(C)c1cc(C(=O)N[C@@H](Cc2ccc(-c3ncc(-c4ccc(C(C)(C)C)cc4)cn3)cc2)C(=O)O)cs1 [Compound 179]	5000 to 10000
CC(C)c1ncc(C(=O)N[C@@H](Cc2ccc(-c3ncc(-c4ccc(C(C)(C)C)cc4)cn3)cc2)C(=O)O)s1 [Compound 180]	< 800
CC(C)S(=O)(=O)c1ccc(C(=O)N[C@@H](Cc2ccc(-c3ncc(-c4ccc(C(C)(C)C)cc4)cn3)cc2)C(=O)O)cc1 [Compound 181]	800 to 2500
CC(C)(C)c1ccc(-c2cnc(-c3ccc(C[C@@H](NC(=O)c4ccc(C(C)(C)C)s4)C(=O)O)cc3)nc2)cc1 [Compound 182]	800 to 2500
CC(C)(C)c1ccc(C(=O)N[C@@H](Cc2ccc(-c3ncc(-c4ccc(N5CCCCC5)cc4)cn3)cc2)C(=O)O)cc1 [Compound 194]	800 to 2500

SMILES	EC50 [nM]
CC(C)c1ccc(-c2cnc(-c3ccc(C[C@H](NC(=O)c4ccc(C(C)(C)C)cc4)C(=O)O)cc3)nc2)cc1 [Compound 195]	800 to 2500
Cn1ccc2c(-c3cnc(-c4ccc(C[C@H](NC(=O)c5ccc(C(C)(C)C)cc5)C(=O)O)cc4)nc3)cccc21 [Compound 197]	2500 to 5000
CC(C)(C)c1ccc(C(=O)N[C@@H](Cc2ccc(-c3ncc(-c4ccc(C(C)(C)C)cc4)cn3)cc2)C(=O)O)cc1 [Compound 199]	800 to 2500
CC(C)Oc1ccc(-c2cnc(-c3ccc(C[C@H](NC(=O)c4ccc(C(C)(C)C)cc4)C(=O)O)cc3)nc2)cc1 [Compound 200]	2500 to 5000
CN(C)c1ccc(-c2cnc(-c3ccc(C[C@H](NC(=O)c4ccc(C(C)(C)C)cc4)C(=O)O)cc3)nc2)cc1 [Compound 201]	2500 to 5000
CN(C)c1cccc(-c2cnc(-c3ccc(C[C@H](NC(=O)c4ccc(C(C)(C)C)cc4)C(=O)O)cc3)nc2)c1 [Compound 202]	5000 to 10000
Cc1ccc(-c2cnc(-c3ccc(C[C@H](NC(=O)c4ccc(C(C)(C)C)cc4)C(=O)O)cc3)nc2)cc1 [Compound 203]	5000 to 10000
CC(C)(C)c1ccc(C(=O)N[C@@H](Cc2ccc(-c3ncc(-c4cccc(C(C)(C)C)c4)cn3)cc2)C(=O)O)cc1 [Compound 204]	2500 to 5000
CC(C)(C)c1ccc(C(=O)N[C@@H](Cc2ccc(-c3ncc(-c4ccc(-c5ccccc5)cc4)cn3)cc2)C(=O)O)cc1 [Compound 205]	800 to 2500
CC(C)(C)c1ccc(C(=O)N[C@@H](Cc2ccc(-c3ncc(-c4ccc(F)cc4)cn3)cc2)C(=O)O)cc1 [Compound 206]	2500 to 5000
CC(C)(C)c1ccc(C(=O)N[C@@H](Cc2ccc(-c3ncc(-c4cccc(F)c4)cn3)cc2)C(=O)O)cc1 [Compound 207]	2500 to 5000
CC(C)(C)c1ccc(C(=O)N[C@@H](Cc2ccc(-c3ncc(-c4ccc(F)cc4F)cn3)cc2)C(=O)O)cc1 [Compound 208]	2500 to 5000
CC(C)(C)c1ccc(C(=O)N[C@@H](Cc2ccc(-c3ncc(-c4ccc(C(F)(F)F)cc4)cn3)cc2)C(=O)O)cc1 [Compound 209]	800 to 2500
CC(C)(C)c1ccc(C(=O)N[C@@H](Cc2ccc(-c3ncc(-c4cccc(C(F)(F)F)c4)cn3)cc2)C(=O)O)cc1 [Compound 210]	2500 to 5000
CC(C)(C)c1ccc(C(=O)N[C@@H](Cc2ccc(-c3ncc(-c4ccc(Cl)cc4)cn3)cc2)C(=O)O)cc1 [Compound 211]	5000 to 10000
CC(C)(C)c1ccc(C(=O)N[C@@H](Cc2ccc(-c3ncc(-c4cccc(Cl)c4)cn3)cc2)C(=O)O)cc1 [Compound 212]	5000 to 10000
CC(C)(C)c1ccc(C(=O)N[C@@H](Cc2ccc(-c3ncc(-c4ccc(Cl)c(Cl)c4)cn3)cc2)C(=O)O)cc1 [Compound 213]	2500 to 5000
COc1ccc(-c2cnc(-c3ccc(C[C@H](NC(=O)c4ccc(C(C)(C)C)cc4)C(=O)O)cc3)nc2)cc1OC [Compound 214]	2500 to 5000
COc1cccc(-c2cnc(-c3ccc(C[C@H](NC(=O)c4ccc(C(C)(C)C)cc4)C(=O)O)cc3)nc2)c1 [Compound 215]	2500 to 5000
CC(C)(C)c1ccc(C(=O)N[C@@H](Cc2ccc(-c3ncc(-c4cccc(N5CCCCC5)c4)cn3)cc2)C(=O)O)cc1 [Compound 216]	2500 to 5000

The next lines start with the values.

EC50 [nM]	SMILES
800 to 2500	CCCCCCCOc1ccc(-c2cnc(-c3ccc(C[C@H](NC(=O)c4cc5ccccc5s4)C(=O)O)cc3)nc2)cc1 [Compound 156]
800 to 2500	CCCCCCCOc1ccc(-c2cnc(-c3ccc(C[C@H](NC(=O)c4cc5ccc(C)cc5s4)C(=O)O)cc3)nc2)cc1 [Compound 157]
< 800	CCCCCCCOc1ccc(-c2cnc(-c3ccc(C[C@H](NC(=O)c4cc5cccnc5s4)C(=O)O)cc3)nc2)cc1 [Compound 158]
800 to 2500	CCCc1ccc(C(=O)N[C@@H](Cc2ccc(-c3ncc(-c4ccc(C(C)(C)C)cc4)cn3)cc2)C(=O)O)cc1 [Compound 164]
800 to 2500	CCc1ccc(C(=O)N[C@@H](Cc2ccc(-c3ncc(-c4ccc(C(C)(C)C)cc4)cn3)cc2)C(=O)O)s1 [Compound 166]
800 to 2500	COc1ccc(C(=O)N[C@@H](Cc2ccc(-c3ncc(-c4ccc(C(C)(C)C)cc4)cn3)cc2)C(=O)O)cc1 [Compound 170]
800 to 2500	CCOc1ccc(C(=O)N[C@@H](Cc2ccc(-c3ncc(-c4ccc(C(C)(C)C)cc4)cn3)cc2)C(=O)O)cc1 [Compound 171]
800 to 2500	CCCCCCCOc1ccc(-c2cnc(-c3ccc(C[C@H](NC(=O)c4ccc(OS(C)(=O)=O)cc4)C(=O)O)cc3)nc2)cc1 [Compound 183]
800 to 2500	CCCCCCCOc1ccc(-c2cnc(-c3ccc(C[C@H](NS(=O)(=O)c4ccccc4)C(=O)O)cc3)nc2)cc1 [Compound 184]
800 to 2500	CCCCCCCOc1ccc(-c2cnc(-c3ccc(C[C@H](NS(=O)(=O)c4ccc(Cl)cc4)C(=O)O)cc3)nc2)cc1 [Compound 185]
800 to 2500	CCCCCCCOc1ccc(-c2cnc(-c3ccc(C[C@H](NS(=O)(=O)c4ccc(OC)cc4)C(=O)O)cc3)nc2)cc1 [Compound 186]
2500 to 5000	CCCCCCCOc1ccc(-c2cnc(-c3ccc(C[C@H](NS(=O)(=O)c4ccc(C)cc4)C(=O)O)cc3)nc2)cc1 [Compound 187]
2500 to 5000	CCCCCCCOc1ccc(-c2cnc(-c3ccc(C[C@H](NS(=O)(=O)c4ccc(Cl)c(Cl)c4)C(=O)O)cc3)nc2)cc1 [Compound 188]
800 to 2500	CCCCCCCOc1ccc(-c2cnc(-c3ccc(C[C@H](NS(=O)(=O)c4ccc(OC(C)C)cc4)C(=O)O)cc3)nc2)cc1 [Compound 189]
2500 to 5000	CCCCCCCOc1ccc(-c2cnc(-c3ccc(C[C@H](NS(=O)(=O)c4ccc(C(F)(F)F)cc4)C(=O)O)cc3)nc2)cc1 [Compound 190]
< 800	CCCCCCCOc1ccc(-c2cnc(-c3ccc(C[C@H](NC(=O)c4ccc(C(C)(C)C)s4)C(=O)O)cc3)nc2)cc1 [Compound 192, (S)-2-(5-(tert-butyl)thiophene-2-carboxamido)-3-(4-(5-(4-(heptyloxy)phenyl)-pyrimidin-2-yl)phenyl)propanoic acid]
800 to 2500	CCCCCCCOc1ccc(-c2cnc(-c3ccc(C[C@@H](NC(=O)c4ccc(C(C)(C)C)s4)C(=O)O)cc3)nc2)cc1 [Compound 193]
2500 to 5000	CC(C)(C)c1ccc(C(=O)N[C@@H](Cc2ccc(-c3ncc(-c4ccccc4)cn3)cc2)C(=O)O)cc1 [Compound 196]
5000 to 10000	COc1ccc(-c2cnc(-c3ccc(C[C@H](NC(=O)c4ccc(C(C)(C)C)cc4)C(=O)O)cc3)nc2)cc1 [Compound 198]
